Assay results published in patent publication US10925852B2, “Talc-bound compositions and uses thereof” (THE TRUSTEES OF COLUMBIA UNIVERSITY IN THE CITY OF NEW YORK, priority 2015, dated 2021).
Counter-ions that a name gives are not always drawn. Like-named read-outs stand apart in the source and are kept apart here.

Legend:
NCI-28H cells [1] = experiment: Cytotoxicity assay (MTS) of NCI-28H cells: doxorubicin, cisplatin, paclitaxel, talc, talc bound to these drugs (Example 21); assay type: cell-based; conditions: 72 hrs
Description: Compare survival rate between each formulation.
1. Set up 3 cytotoxicity plates for Day 2 experiment: trypsinize NCI-28H cells (T-75 flask, passage 12): • Remove old medium, wash cells with 7 ml DPBS, remove DPBS, add 2 ml trypsin, incubate plates for 1-2′, when cells detached add 6 ml fresh medium, mix cells and medium. • Count cells under the microscope using the glass slide. […] If we need 200 wells, in each well will be 5,000 cells in 0.1 ml; so total we need 1,000,000 cells in 20 ml. […] In 50 ml Falcon tube, combine 16.6 ml fresh medium and 3.4 ml cells. Gently mix.
3. […] Final solution is 500 μL of 20 μM.
1. […] Take out supernatant.
6. Check the plate and start incubation at 37° C./5% CO2
3. Wash cells 1×300 μL media, remove final wash.

NCI-28H cells [2] = conditions: 72 hrs
NCI-28H cells [3] = test system: NCI-28H cells

With `COc1cccc2c1C(=O)c1c(O)c3c(c(O)c1C2=O)C[C@@](O)(C(=O)CO)C[C@@H]3O[C@H]1C[C@H](N)[C@H](O)[C@H](C)O1` [DOX, Doxorubicin Hydrochloride] the “AVERAGE: cells + DOX (absorbance 490 nm)” value (NCI-28H cells [1]; DOX 0.2 μM) was 0.89, the “AVERAGE: cells + DOX (absorbance 490 nm)” value (NCI-28H cells [1]; DOX 1 μM) was 0.67 and the “AVERAGE: cells + DOX (absorbance 490 nm)” value (NCI-28H cells [1]; DOX 5 μM) was 0.63.
`Cc1c(N)nc([C@H](CC(N)=O)NCC(N)C(N)=O)nc1C(=O)N[C@H](C(=O)N[C@H](C)[C@@H](O)[C@H](C)C(=O)N[C@H](C(=O)NCCc1nc(-c2nc(C(=O)NCCC[S+](C)C)cs2)cs1)[C@@H](C)O)C(O[C@@H]1OC(CO)[C@@H](O)C(O)C1O[C@H]1OC(CO)[C@@H](O)C(OC(N)=O)C1O)c1c[nH]cn1` (some centres unmarked) [bleomycin, Bleomycin sulfate] was tested, and the “% survival NCI-28H cells after treatment with BLEOMYCIN” value (“% survival NCI-28H cells” below) (NCI-28H cells [2]; Bleomycin 0.004 ug/ml) was 92.41%, the “% survival NCI-28H cells” value (NCI-28H cells [2]; Bleomycin 0.015 ug/ml) was 88.25% and the “% survival NCI-28H cells” value (NCI-28H cells [2]; Bleomycin 0.06 ug/ml) was 93.38%. The “% survival NCI-28H cells” value (NCI-28H cells [2]; Bleomycin 0.24 ug/ml) was 91.86%, the “% survival NCI-28H cells” value (NCI-28H cells [2]; Bleomycin 0.97 ug/ml) was 86.19% and the “% survival NCI-28H cells” value (NCI-28H cells [2]; Bleomycin 3.9 ug/ml) was 71.05%. For the same molecule, the “% survival NCI-28H cells” value (NCI-28H cells [2]; Bleomycin 15.6 ug/ml) was 74.60%, the “% survival NCI-28H cells” value (NCI-28H cells [2]; Bleomycin 62.5 ug/ml) was 68.76% and the “% survival NCI-28H cells” value (NCI-28H cells [2]; Bleomycin 250 ug/ml) was 47.13%. For the same molecule, the “% survival NCI-28H cells” value (NCI-28H cells [2]; Bleomycin 1000 ug/ml) was 24.92%.
`N.N.[Cl][Pt][Cl]` [cisplatin, Cisplatin] was tested, and the “Average reading: cells + cisplatin (absorbance 490 nm)” value (from here on “Average reading: cells + cisplatin”) (NCI-28H cells [1]; Cisplatin 0.0013 μM) was 1.37, the “Average reading: cells + cisplatin” value (NCI-28H cells [1]; Cisplatin 0.0064 μM) was 1.19 and the “Average reading: cells + cisplatin” value (NCI-28H cells [1]; Cisplatin 0.8 μM) was 1.23. The “Average reading: cells + cisplatin” value (NCI-28H cells [1]; Cisplatin 4 μM) was 1.18, the “Average reading: cells + cisplatin” value (NCI-28H cells [1]; Cisplatin 20 μM) was 0.48 and the “Average reading: cells + cisplatin” value (NCI-28H cells [1]; Cisplatin 100 μM) was 0.59.
For `Nc1ccn([C@@H]2O[C@H](CO)[C@@H](O)C2(F)F)c(=O)n1` [gemcitabine, Gemcitabine], the “cytotoxic effect on NCI-28H cells (in words)” value (NCI-28H cells [3]) was “clear cytotoxic effect”.
